Test results: ChEMBL document CHEMBL1201862, “PubChem BioAssay data set” (2004)
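A five-concentration, 48-hour dose response in 96-well plates underlies each endpoint, interpolated linearly between surrounding concentrations. GI50: concentration for 50% inhibition of growth.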 The source made the active and inactive calls. Cut-off read from the data, not from the text of the source: active = GI50 up to about 1.1 µM and inactive = higher.

How the values were obtained:
Experiment in all cases: NCI anticancer screen, dose series, 48 h
786-0 = tested on: 786-0
ACHN = tested on: ACHN
CCRF-CEM = tested on: CCRF-CEM
COLO 205 = tested on: COLO 205
DU-145 = tested on: DU-145
HCT-116 = tested on: HCT-116
Hs-578T = tested on: Hs-578T
K562 = tested on: K562
LOX IMVI = tested on: LOX IMVI
MCF7 = tested on: MCF7
Malme-3M = tested on: Malme-3M
NCI-H460 = tested on: NCI-H460
NCI-H522 = tested on: NCI-H522
NCI/ADR-RES = tested on: NCI/ADR-RES
PC-3 = tested on: PC-3
RPMI-8226 = tested on: RPMI-8226
SF-539 = tested on: SF-539
SK-OV-3 = tested on: SK-OV-3
SN12C = tested on: SN12C
UO-31 = tested on: UO-31

Row | Compound | GI50 (786-0) | GI50 (ACHN) | GI50 (CCRF-CEM) | GI50 (COLO 205) | GI50 (DU-145) | GI50 (HCT-116) | GI50 (Hs-578T) | GI50 (K562) | GI50 (LOX IMVI) | GI50 (MCF7) | GI50 (Malme-3M) | GI50 (NCI-H460) | GI50 (NCI-H522) | GI50 (NCI/ADR-RES) | GI50 (PC-3) | GI50 (RPMI-8226) | GI50 (SF-539) | GI50 (SK-OV-3) | GI50 (SN12C) | GI50 (UO-31)
1 | O=C(O)COCC(=O)N(CCOCCN(Cc1ccccc1)C(=O)COCC(=O)O)Cc1ccccc1 | > 100 µM (inactive) | > 100 µM (inactive) | > 100 µM (inactive) | > 100 µM (inactive) | > 100 µM (inactive) | > 100 µM (inactive) | > 100 µM (inactive) | > 100 µM (inactive) | > 100 µM (inactive) | > 100 µM (inactive) | > 100 µM (inactive) | > 100 µM (inactive) | > 100 µM (inactive) | > 100 µM (inactive) | > 100 µM (inactive) | > 100 µM (inactive) | > 100 µM (inactive) | > 100 µM (inactive) | > 100 µM (inactive) | –
2 | O=Cc1cn(CCCCCCCCCCCCn2cc(C=O)c3ccccc32)c2ccccc12 | > 100 µM (inactive) | 4.88 µM (inactive) | > 10 µM (inactive) | > 100 µM (inactive) | > 100 µM (inactive) | 2.25 µM (inactive) | 4.04 µM (inactive) | 0.615 µM (active) | > 100 µM (inactive) | 2.62 µM (inactive) | > 100 µM (inactive) | > 10 µM (inactive) | 38.3 µM (inactive) | 1.46 µM (inactive) | 33.3 µM (inactive) | – | > 100 µM (inactive) | > 100 µM (inactive) | > 100 µM (inactive) | > 100 µM (inactive)
3 | O=C1CSC(c2cc3cc(Br)ccc3nc2Cl)N1c1ccc(F)c(Cl)c1 (stereo unspecified) | 27.4 µM (inactive) | > 50 µM (inactive) | 13.1 µM (inactive) | > 50 µM (inactive) | > 50 µM (inactive) | > 50 µM (inactive) | > 50 µM (inactive) | 18.6 µM (inactive) | 22.9 µM (inactive) | 18.9 µM (inactive) | > 50 µM (inactive) | 40.8 µM (inactive) | 33.1 µM (inactive) | > 50 µM (inactive) | 29.9 µM (inactive) | 18.1 µM (inactive) | 17.3 µM (inactive) | > 50 µM (inactive) | > 50 µM (inactive) | > 50 µM (inactive)
4 | Nc1ccc(Nc2c3ccccc3nc3ccccc23)cc1 | 3.1 µM (inactive) | 1.89 µM (inactive) | 2.09 µM (inactive) | 3.78 µM (inactive) | 4.92 µM (inactive) | 3.15 µM (inactive) | 7.55 µM (inactive) | 4.86 µM (inactive) | 1.06 µM (active) | 2.2 µM (inactive) | 2.98 µM (inactive) | 0.565 µM (active) | 4.79 µM (inactive) | 4.9 µM (inactive) | 4.75 µM (inactive) | 4.49 µM (inactive) | 3.7 µM (inactive) | 5.5 µM (inactive) | 2.88 µM (inactive) | –
5 | NS(=O)(=O)c1cc2c(cc1Cl)NCNS2(=O)=O [HYDROCHLOROTHIAZIDE] | > 100 µM (inactive) | > 100 µM (inactive) | > 100 µM (inactive) | > 100 µM (inactive) | > 100 µM (inactive) | > 100 µM (inactive) | > 100 µM (inactive) | > 100 µM (inactive) | > 100 µM (inactive) | > 100 µM (inactive) | > 100 µM (inactive) | > 100 µM (inactive) | > 100 µM (inactive) | > 100 µM (inactive) | > 100 µM (inactive) | > 100 µM (inactive) | > 100 µM (inactive) | – | > 100 µM (inactive) | > 100 µM (inactive)
6 | CCCCCC(/C=N/N)C(O)(C(F)(F)F)C(F)(F)F (stereo unspecified) | 2.97 µM (inactive) | 4.15 µM (inactive) | > 10 µM (inactive) | 1.86 µM (inactive) | 1.9 µM (inactive) | 3.99 µM (inactive) | 3.27 µM (inactive) | – | 3.32 µM (inactive) | 3.22 µM (inactive) | 1.36 µM (inactive) | 3.34 µM (inactive) | 5.51 µM (inactive) | > 10 µM (inactive) | 3.27 µM (inactive) | > 10 µM (inactive) | 3.93 µM (inactive) | 5.06 µM (inactive) | 3.23 µM (inactive) | –
7 | CC(C)c1nc2c(Cl)c3ncccc3cc2[nH]c1=O | > 100 µM (inactive) | 44 µM (inactive) | 46.2 µM (inactive) | > 100 µM (inactive) | > 100 µM (inactive) | > 100 µM (inactive) | 25.8 µM (inactive) | > 100 µM (inactive) | – | > 100 µM (inactive) | > 100 µM (inactive) | 88.1 µM (inactive) | 16.7 µM (inactive) | 37.8 µM (inactive) | > 100 µM (inactive) | > 100 µM (inactive) | > 100 µM (inactive) | > 100 µM (inactive) | > 100 µM (inactive) | > 100 µM (inactive)
8 | c1csc(-c2cc(-c3ccsc3)c(-c3cccs3)s2)c1 | > 100 µM (inactive) | 99.5 µM (inactive) | 28.8 µM (inactive) | 23.1 µM (inactive) | > 100 µM (inactive) | 29.8 µM (inactive) | > 100 µM (inactive) | 69.8 µM (inactive) | – | 6.75 µM (inactive) | 59.2 µM (inactive) | 43.5 µM (inactive) | 61.7 µM (inactive) | > 100 µM (inactive) | > 100 µM (inactive) | – | > 100 µM (inactive) | – | > 100 µM (inactive) | 76.2 µM (inactive)
9 | CCCCCCNC(=O)c1cc(CCc2cc(O)ccc2O)ccc1O | 2.04 µM (inactive) | 2.66 µM (inactive) | 1.92 µM (inactive) | 10.9 µM (inactive) | 6.78 µM (inactive) | – | 3.59 µM (inactive) | 2.38 µM (inactive) | 4.67 µM (inactive) | 3.25 µM (inactive) | 2.35 µM (inactive) | 8.57 µM (inactive) | 0.916 µM (active) | 3.61 µM (inactive) | 2.18 µM (inactive) | 1.11 µM (active) | – | 9.95 µM (inactive) | – | 1.55 µM (inactive)
10 | O=S(=O)(c1cnccc1N1CCN(CCO)CC1)N1CCCC1 | > 100 µM (inactive) | > 100 µM (inactive) | – | > 100 µM (inactive) | > 100 µM (inactive) | > 100 µM (inactive) | > 100 µM (inactive) | > 100 µM (inactive) | > 100 µM (inactive) | > 100 µM (inactive) | > 100 µM (inactive) | > 100 µM (inactive) | > 100 µM (inactive) | > 100 µM (inactive) | > 100 µM (inactive) | > 100 µM (inactive) | > 100 µM (inactive) | > 100 µM (inactive) | > 100 µM (inactive) | > 100 µM (inactive)
11 | O=C(Sc1c(-c2ccccc2)c(=O)n(-c2ccccc2)c(=S)n1-c1ccccc1)c1cccs1 | 49.8 µM (inactive) | 81.8 µM (inactive) | 11.8 µM (inactive) | > 100 µM (inactive) | > 100 µM (inactive) | 56.2 µM (inactive) | > 100 µM (inactive) | 25.1 µM (inactive) | 11.4 µM (inactive) | 50.4 µM (inactive) | 86.3 µM (inactive) | > 100 µM (inactive) | 29.2 µM (inactive) | 50.8 µM (inactive) | 73.8 µM (inactive) | 24.4 µM (inactive) | – | 35 µM (inactive) | 50.4 µM (inactive) | > 100 µM (inactive)
12 | Cc1csc(NC23CC4CC(CC(C4)C2)C3)[n+]1C(P(=O)([O-])O)P(=O)(O)O (stereo unspecified) | > 100 µM (inactive) | > 100 µM (inactive) | > 100 µM (inactive) | > 100 µM (inactive) | > 100 µM (inactive) | > 100 µM (inactive) | > 100 µM (inactive) | > 100 µM (inactive) | > 100 µM (inactive) | > 100 µM (inactive) | > 100 µM (inactive) | > 100 µM (inactive) | > 100 µM (inactive) | > 100 µM (inactive) | > 100 µM (inactive) | > 100 µM (inactive) | > 100 µM (inactive) | > 100 µM (inactive) | – | > 100 µM (inactive)
13 | O=C(NNC(=O)c1cc2ccccc2[nH]1)c1cc2ccccc2[nH]1 | > 100 µM (inactive) | – | > 100 µM (inactive) | > 100 µM (inactive) | > 100 µM (inactive) | > 100 µM (inactive) | > 100 µM (inactive) | 80 µM (inactive) | > 100 µM (inactive) | > 100 µM (inactive) | > 100 µM (inactive) | > 100 µM (inactive) | > 100 µM (inactive) | > 100 µM (inactive) | > 100 µM (inactive) | > 100 µM (inactive) | > 100 µM (inactive) | > 100 µM (inactive) | > 100 µM (inactive) | > 100 µM (inactive)
14 | Clc1ccc(OCc2nnc(CCCCCCCCc3nnc(COc4ccc(Cl)cc4)n3Nc3ccccc3)n2Nc2ccccc2)cc1 | 15.3 µM (inactive) | 1.16 µM (inactive) | – | 0.318 µM (active) | 19.1 µM (inactive) | 4.44 µM (inactive) | 22.9 µM (inactive) | 0.343 µM (active) | 21.7 µM (inactive) | 3.75 µM (inactive) | 12.5 µM (inactive) | 2.71 µM (inactive) | 2.82 µM (inactive) | 3.84 µM (inactive) | 1.44 µM (inactive) | 0.21 µM (active) | 0.962 µM (active) | 17.1 µM (inactive) | 18.2 µM (inactive) | 2.04 µM (inactive)
15 | CCOc1nc(-c2ccccc2)cc(-c2ccc(N3CCOCC3)cc2)c1C#N | > 100 µM (inactive) | > 100 µM (inactive) | > 100 µM (inactive) | > 100 µM (inactive) | > 100 µM (inactive) | > 100 µM (inactive) | > 100 µM (inactive) | > 100 µM (inactive) | > 100 µM (inactive) | > 100 µM (inactive) | > 100 µM (inactive) | > 100 µM (inactive) | > 100 µM (inactive) | > 100 µM (inactive) | > 100 µM (inactive) | 77.4 µM (inactive) | > 100 µM (inactive) | – | > 100 µM (inactive) | > 100 µM (inactive)
